This assay has as its system BDF1 mice, P388 leukemia ip, median survival T/C. Description: NCI In Vivo Anticancer Drug Screen. Data for tumor model P388 Leukemia (intraperitoneal) in B6D2F1 (BDF1) mice. As to conditions: endpoint: median survival time, higher = longer survival. Put shortly:
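Mice carrying the transplantable tumour receive compound or vehicle. Survival is followed in each arm, and the treated measure is divided by the vehicle measure.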

Where [1] appears, read: dose: 40.0 mg/kg/injection, schedule: Q01DX009 (ip), vehicle: saline with Tween-80.
The mark [2] stands for this setting: dose: 200.0 mg/kg/injection, schedule: Q01DX009 (ip), vehicle: saline with Tween-80.
[3] abbreviates: dose: 50.0 mg/kg/injection, schedule: Q01DX009 (ip), vehicle: saline with Tween-80.
The mark [4] stands for this setting: dose: 100.0 mg/kg/injection, schedule: Q01DX009 (ip), vehicle: saline with Tween-80.
Setting [5] is: dose: 12.5 mg/kg/injection, schedule: Q01DX009 (ip), vehicle: water.
Where [6] appears, read: dose: 25.0 mg/kg/injection, schedule: Q01DX009 (ip), vehicle: water.
The mark [7] stands for this setting: dose: 50.0 mg/kg/injection, schedule: Q01DX009 (ip), vehicle: water.
The mark [8] stands for this setting: dose: 100.0 mg/kg/injection, schedule: Q01DX009 (ip), vehicle: water.
Setting [9] is: dose: 400.0 mg/kg/injection, schedule: Q01DX009 (ip), vehicle: saline with Tween-80.
Setting [10] is: dose: 12.5 mg/kg/injection, schedule: Q01DX009 (ip), vehicle: saline.
Setting [11] is: dose: 100.0 mg/kg/injection, schedule: Q04DX003 (ip), vehicle: Klucel (hydroxypropylcellulose) (HPC).

This is an account of results in PubChem BioAssay AID328 (DTP/NCI, 2004).

SMILES strings stand for the structures. Where “and” joins values, the source holds several entries; their conditions need not be identical. Equal values may be shown once. Toxic doses and inconclusive results are not listed.

`Cc1ccc2oc3ccccc3c(=O)c2c1`: the T/C (dose: 50.0 mg/kg/injection, schedule: Q01DX001 (ip), vehicle: saline sonified) is 95 % of control; the T/C (dose: 100.0 mg/kg/injection, schedule: Q01DX001 (ip), vehicle: saline sonified) is 95 % of control; the T/C (dose: 200.0 mg/kg/injection, schedule: Q01DX001 (ip), vehicle: saline sonified) is 95 % of control.

Turning to `CN(C)c1nc(N(C)C)nc(N(C)C)n1`, the T/C reads like this: (dose: 18.8 mg/kg/injection, schedule: Q01DX010 (ip), vehicle: saline) 100 % of control; (dose: 20.0 mg/kg/injection, schedule: Q01DX009 (ip), vehicle: Klucel (hydroxypropylcellulose) (HPC)) 95 % of control; (dose: 20.0 mg/kg/injection, schedule: Q01DX009 (ip), vehicle: saline with Tween-80) 104 % of control; (dose: 25.0 mg/kg/injection, schedule: Q01DX001 (ip), vehicle: Klucel (hydroxypropylcellulose) (HPC)) 100 % of control; (dose: 25.0 mg/kg/injection, schedule: Q04DX002 (ip), vehicle: Klucel (hydroxypropylcellulose) (HPC)) 101 % of control and 107 % of control; (dose: 25.0 mg/kg/injection, schedule: Q04DX003 (ip), vehicle: Klucel (hydroxypropylcellulose) (HPC)) 96 % of control and 100 % of control. The T/C runs as follows: (dose: 37.5 mg/kg/injection, schedule: Q01DX010 (ip), vehicle: saline) 100 % of control and 110 % of control; (dose: 40.0 mg/kg/injection, schedule: Q01DX009 (ip), vehicle: Klucel (hydroxypropylcellulose) (HPC)) 100 % of control; under setting [1], 113 % of control; (dose: 59.0 mg/kg/injection, schedule: Q01DX009 (ip), vehicle: saline with Tween-80) 107 % of control; (dose: 75.0 mg/kg/injection, schedule: Q01DX010 (ip), vehicle: saline) 100 % of control and 115 % of control; (dose: 80.0 mg/kg/injection, schedule: Q01DX009 (ip), vehicle: Klucel (hydroxypropylcellulose) (HPC)) 90 % of control. Further, the T/C is, setting by setting: (dose: 80.0 mg/kg/injection, schedule: Q01DX009 (ip), vehicle: saline with Tween-80) 99 % of control; (dose: 89.0 mg/kg/injection, schedule: Q01DX009 (ip), vehicle: saline with Tween-80) 107 % of control; (dose: 133.0 mg/kg/injection, schedule: Q01DX009 (ip), vehicle: saline with Tween-80) 115 % of control; (dose: 150.0 mg/kg/injection, schedule: Q01DX010 (ip), vehicle: saline) 100 % of control and 104 % of control; (dose: 160.0 mg/kg/injection, schedule: Q01DX009 (ip), vehicle: Klucel (hydroxypropylcellulose) (HPC)) 104 % of control; under setting [2], 107 % of control.

In the case of `CC1CC(C)(C)[N+](C)=C(CC(O)(c2ccccc2)c2ccccc2)O1` (stereo unspecified), the T/C was 109 % of control (dose: 6.25 mg/kg/injection, schedule: Q04DX003 (ip), vehicle: saline sonified); 90 % of control (dose: 12.5 mg/kg/injection, schedule: Q04DX003 (ip), vehicle: saline sonified); 90 % of control (dose: 25.0 mg/kg/injection, schedule: Q04DX003 (ip), vehicle: saline sonified).

Turning to `CC1CN1P(=S)(N1CCCC1)N1CC1C` (stereo unspecified), the T/C by setting is: (dose: 17.8 mg/kg/injection, schedule: Q01DX009 (ip), vehicle: saline with Tween-80) 112 % of control; (dose: 26.6 mg/kg/injection, schedule: Q01DX009 (ip), vehicle: saline with Tween-80) 114 % of control; under setting [1], 168 % of control; under setting [3], 150 % of control; (dose: 60.0 mg/kg/injection, schedule: Q01DX009 (ip), vehicle: saline with Tween-80) 214 % of control; under setting [4], 170 % of control.

For `COC(=O)C(CO)NC(=O)OCc1ccccc1` (stereo unspecified), the T/C is 100 % of control under setting [5]; 100 % of control under setting [6]; 96 % of control under setting [7]; 96 % of control under setting [8]; 100 % of control (dose: 200.0 mg/kg/injection, schedule: Q01DX009 (ip), vehicle: water).

As for `Nc1ccc(OC(=O)Oc2ccc(N)cc2)cc1`, the T/C runs as follows: (dose: 264.0 mg/kg/injection, schedule: Q01DX009 (ip), vehicle: saline with Tween-80) 100 % of control; under setting [9], 104 % of control.

For `CC(=O)O.CC(=O)O.CC(=O)O.CC(=O)O.[Rh].[Rh]`, the T/C reads like this: (dose: 5.56 mg/kg/injection, schedule: Q01DX009 (ip), vehicle: saline) 100 % of control and 122 % of control; (dose: 8.33 mg/kg/injection, schedule: Q01DX009 (ip), vehicle: saline) 100 % of control; under setting [10], 118 % of control; (dose: 18.7 mg/kg/injection, schedule: Q01DX009 (ip), vehicle: saline) 90 % of control and 111 % of control.

As to `CN(C)[C@@H]1C(=O)C(C(N)=O)=C(O)[C@]2(O)C(=O)C3C(=O)c4c(O)ccc(Cl)c4[C@](C)(O)[C@H]3C[C@@H]12` (stereo partly specified), the T/C (dose: 33.0 mg/kg/injection, schedule: Q04DX003 (ip), vehicle: saline sonified) was 115 % of control.

For the compound `COc1cc2c3c(c1)C(=O)CCN3CCC2`, the T/C runs as follows: (dose: 50.0 mg/kg/injection, schedule: Q04DX003 (ip), vehicle: Klucel (hydroxypropylcellulose) (HPC)) 95 % of control; under setting [11], 95 % of control; (dose: 200.0 mg/kg/injection, schedule: Q04DX003 (ip), vehicle: Klucel (hydroxypropylcellulose) (HPC)) 87 % of control.

On to `Cc1cc(Cl)ccc1NC(=O)Oc1nc2ccccc2o1`, for which the T/C under setting [3] is 123 % of control, the T/C under setting [4] is 106 % of control and the T/C under setting [2] is 117 % of control.

Regarding `CC(Br)C(=O)NC(CC(N)=O)C(=O)O` (stereo unspecified), the T/C by setting is: (dose: 50.0 mg/kg/injection, schedule: Q04DX003 (ip), vehicle: saline with Tween-80) 100 % of control; (dose: 100.0 mg/kg/injection, schedule: Q04DX003 (ip), vehicle: saline with Tween-80) 90 % of control; (dose: 200.0 mg/kg/injection, schedule: Q04DX003 (ip), vehicle: saline with Tween-80) 100 % of control.

For the compound `Nc1[nH]c(=S)[nH]c(=O)c1NC(=O)C1CC1`, the T/C by setting is: under setting [4], 100 % of control; (dose: 100.0 mg/kg/injection, schedule: Q04DX003 (ip), vehicle: saline) 104 % of control; under setting [2], 100 % of control; (dose: 200.0 mg/kg/injection, schedule: Q04DX003 (ip), vehicle: saline) 104 % of control; under setting [9], 100 % of control; (dose: 400.0 mg/kg/injection, schedule: Q04DX003 (ip), vehicle: saline) 100 % of control.

Take `COc1ccc(C2=CC(c3ccc(OC)c(OC)c3)c3c(c4ccccc4oc3=O)O2)cc1OC` (stereo unspecified): the T/C is 98 % of control under setting [5]; 100 % of control under setting [6]; 97 % of control (dose: 25.0 mg/kg/injection, schedule: Q04DX003 (ip), vehicle: water); 97 % of control under setting [7]; 94 % of control (dose: 50.0 mg/kg/injection, schedule: Q04DX003 (ip), vehicle: water); 96 % of control and 97 % of control under setting [8]. The T/C was 97 % of control (dose: 200.0 mg/kg/injection, schedule: Q04DX003 (ip), vehicle: water); 106 % of control (dose: 400.0 mg/kg/injection, schedule: Q01DX009 (ip), vehicle: water); 97 % of control (dose: 400.0 mg/kg/injection, schedule: Q04DX003 (ip), vehicle: water).

With `C=CCOCC1CO1` (stereo unspecified), the T/C is 99 % of control under setting [10]; 106 % of control (dose: 25.0 mg/kg/injection, schedule: Q01DX009 (ip), vehicle: saline); 100 % of control (dose: 50.0 mg/kg/injection, schedule: Q01DX009 (ip), vehicle: saline); 109 % of control (dose: 100.0 mg/kg/injection, schedule: Q01DX009 (ip), vehicle: saline); 117 % of control (dose: 200.0 mg/kg/injection, schedule: Q01DX009 (ip), vehicle: saline).

With `COc1ccc(N2c3ccccc3-c3cc[nH]c(=O)c3[C@H]2O)cc1OC`, the T/C reads like this: (dose: 37.5 mg/kg/injection, schedule: Q01DX009 (ip), vehicle: Klucel (hydroxypropylcellulose) (HPC)) 119 % of control; (dose: 75.0 mg/kg/injection, schedule: Q01DX006 (ip), vehicle: Klucel (hydroxypropylcellulose) (HPC)) 114 % of control; (dose: 75.0 mg/kg/injection, schedule: Q01DX009 (ip), vehicle: Klucel (hydroxypropylcellulose) (HPC)) 106 % of control; (dose: 150.0 mg/kg/injection, schedule: Q01DX009 (ip), vehicle: Klucel (hydroxypropylcellulose) (HPC)) 163 % of control.

Regarding `CN(C)c1cc2nc[nH]c(=O)c2cc1[N+](=O)[O-]`, the T/C under setting [11] was 116 % of control.
